Laboratory results: patent US20110195845A1, “Constructs for Expressing Herbicide Tolerance Genes, Related Plants, and Related Trait Combinations” (Dow AgroSciences LLC, priority 2008, published 2011)

Legend:
[1] = system: Agrobacterium tumefaciens LBA4404s; assay: Bacterial strain response to glufosinate on minimal media; type: cell-based; design: key: +++ = Heavy Lawn Growth; ++ = Light lawn growth; + = patchy lawn growth; −− = No Growth; conditions: 48 hrs @ 25 C
Description: (§1) Selected cell lines of Escherichia coli and Agrobacterium tumefaciens were inoculated on minimal media containing incrementally increasing concentrations of Glufosinate (BASTA). The cell lines; BL21-Star (DE3), Top10, DH5α, Agrobacterium tumefaciens C58, and Agrobacterium tumefaciens LBA4404s were initially grown up on complex media. The Escherichia coli strains were grown in LB and the Agrobacterium tumefaciens strains were grown in YEP. Five microliters of bacterial culture was inoculated and dispersed evenly onto minimal media plates containing various concentrations of glufosinate. The concentrations consisted of 0 μg/ml, 250 μg/ml, 500 μg/ml, 1000 μg/ml, 2000 μg/ml, and 4000 μg/ml of BASTA. In addition, the bacterial strains were inoculated onto a plate of complex media as a control—Agrobacterium tumefaciens strains were inoculated on YEP agar plates, and Escherichia coli strains were inoculated on LB agar plates. The plates containing the Escherichia coli strains were incubated at 37° C. for 24 hours. The plates containing the Agrobacterium tumefaciens strains were incubate at 25° C. for 48 hours. […] Table 7 illustrates the capability of the various strains to grow on minimal media containing glufosinate.

[2] = system: Agrobacterium tumefaciens C58; assay: as above; type: cell-based; design: key: +++ = Heavy Lawn Growth; ++ = Light lawn growth; + = patchy lawn growth; −− = No Growth; conditions: 48 hrs @ 25 C
Description: as §1

[3] = system: WT corn (5× H751× Hi II control plants); assay: Corn response to glufosinate applied postemergence; type: in vivo; conditions: 14DAT
Excerpt: The seed from the cross of T1 DSM-2 (v2)×5× H751 were planted into 4-inch pots containing Metro Mix media and at 2 leaf stage were sprayed in the track sprayer set to 187 L/ha at 560 g ai/ha glufosinate to remove nulls. At 7 DAT nulls were removed and resistant plants were sprayed in the track sprayer as above at the following rates: 0, 560, 1120, 2240, and 4480 g ai/ha glufosinate. Plants were graded at 3 and 14 DAT and compared to 5× H751× Hi II control plants.

[4] = system: Escherichia coli BL21-Star (DE3) expressing DSM-2 (v2); assay: Complementation of cell growth on glufosinate, pDAB4412 (DSM-2 v2); type: cell-based; design: bacterial growth on minimal media: key: −− = No Growth; +++ = Distinct Colony Growth; conditions: for bacterial growth on minimal media: 24 hrs @28 C, 20 uM IPTG
Description: The plasmids, pDAB4434, pDAB4412, and an empty pET vector (control) were transformed into Escherichia coli BL21-Star (DE3) bacterial cells. Expression cultures were initiated with 10-200 freshly transformed colonies into 250 mL LB medium containing 50 μg/ml antibiotic and 75 μM IPTG (isopropyl-[…]). The cultures were grown at 28° C. for 24 hours at 180-200 rpm. Five microliters of the culture was inoculated onto a complex media control and minimal media containing incrementally increasing concentrations of glufosinate and 20 μM IPTG. The cultures were dispersed evenly over the plates and incubated at 28° C. for 24 hours.

[5] = system: PAT (pDAS1942) corn; assay: T2 corn response to glufosinate applied postemergence; type: in vivo; conditions: 14DAT
[6] = system: Arabidopsis seed (wildtype, PAT, DSM-2 (v2)); assay: DSM-2 (v2) as selectable marker: survival of sown seed after glufosinate spray; type: in vivo, Arabidopsis thaliana
Description: The ability to use DSM-2 (v2) as a selectable marker using glufosinate as the selection agent was analyzed with Arabidopsis transformed as described above. Approximately 100 T1 generation Arabidopsis seed (100-150 seeds) containing for DSM-2 (v2) or 2 mg homozygous T5 plants containing PAT were spiked into approximately 10,000 wildtype (sensitive) seed. Each tray of plants received two application timings of 280 g ai/ha glufosinate at the following treatment times: 7 DAP and 11 DAP. Treatments were applied with a DeVilbiss spray tip as previously described. Another 2 mg T1 generation Arabidopsis seed from each was sown and not sprayed as a comparison count. Plants were identified as Resistant or Sensitive 17 DAP.

[7] = system: Escherichia coli BL21-Star (DE3) with CsVMV promoter//DSM-2 (3264); assay: Viral promoter driven complementation on glufosinate, plasmid 3264; type: cell-based; conditions: for bacterial growth on minimal media: 48 hrs @37 C; on bacterial growth on minimal media: key: ++++ = Heavy Lawn Growth; +++ = Lawn Growth; ++ = Lots of Distinct Colonies; + = Scattered Colony Growth
Description: Plasmid constructs in which the DSM-2 (v2) and PAT gene coding sequences were expressed, under either the viral promoters CsVMV or the plant promoter AtUbi10, were assayed for complementation on minimal media containing glufosinate. The plasmids 3778 (Rb7 MARv3//AtUbi10 promoter//DSM-2 (v2)//Atu Orf 1 3′UTR), 3779 (Rb7 MARv3//AtUbi10 promoter//PAT//Atu Orf 1 3′UTR), 3264 (CsVMV promoter//DSM-2//Atu Orf 24 3′UTR), 3037 (CsVMV promoter//PAT//Atu Orf 25/26 3′UTR), and 770 (control plasmid containing CsVMV promoter//GUS v3//Atu Orf 24 3′UTR) were transformed into Escherichia coli BL21-Star (DE3) and grown up in complex media. Five microliters of the cultures were plated on minimal media containing increasing concentrations of Glufosinate and incubated at 37° C. for 48 hours.

[8] = 560 g ai/ha glufosinate postemergence
[9] = 1120 g ai/ha glufosinate postemergence
[10] = 2240 g ai/ha glufosinate postemergence
[11] = 4480 g ai/ha glufosinate postemergence

Structure (SMILES): CP(=O)(O)CCC(N)C(=O)O (stereo not drawn) [glufosinate]
- bacterial growth on minimal media ([1]; 250 μg/ml BASTA): +++
- bacterial growth on minimal media ([1]; 500 μg/ml BASTA): ++
- bacterial growth on minimal media ([1]; 1000 μg/ml BASTA): ++
- bacterial growth on minimal media ([1]; 2000 μg/ml BASTA): +
- bacterial growth on minimal media ([1]; 4000 μg/ml BASTA): −−
- bacterial growth on minimal media ([2]; 250 μg/ml BASTA): +++
- bacterial growth on minimal media ([2]; 500 μg/ml BASTA): +++
- bacterial growth on minimal media ([2]; 1000 μg/ml BASTA): +++
- bacterial growth on minimal media ([2]; 2000 μg/ml BASTA): ++
- bacterial growth on minimal media ([2]; 4000 μg/ml BASTA): −−
- % Injury Ave [3, 8]: 100%
- individuals with % Injury 20-40% [3, 8]: 0
- individuals with % Injury <20% [3, 8]: 0
- individuals with % Injury >40% [3, 8]: 4
- % Injury Ave [3, 9]: 100%
- individuals with % Injury 20-40% [3, 9]: 0
- individuals with % Injury <20% [3, 9]: 0
- individuals with % Injury >40% [3, 9]: 4
- % Injury Ave [3, 10]: 100%
- individuals with % Injury 20-40% [3, 10]: 0
- individuals with % Injury <20% [3, 10]: 0
- individuals with % Injury >40% [3, 10]: 4
- % Injury Ave [3, 11]: 100%
- individuals with % Injury 20-40% [3, 11]: 0
- individuals with % Injury <20% [3, 11]: 0
- individuals with % Injury >40% [3, 11]: 4
- bacterial growth on minimal media ([4]; 250 μg/ml BASTA): +++
- bacterial growth on minimal media ([4]; 500 μg/ml BASTA): +++
- bacterial growth on minimal media ([4]; 1000 μg/ml BASTA): +++
- bacterial growth on minimal media ([4]; 2000 μg/ml BASTA): +++
- bacterial growth on minimal media ([4]; 4000 μg/ml BASTA): +++
- concentration in minimal media at which expression of DSM-2 complemented resistance ([4]; minimal media): 400 µg/mL
- % Injury Ave [5, 8]: 6%
- individuals with % Injury <20% [5, 8]: 4
- individuals with % Injury >40% [5, 9]: 3
- % Injury Ave [5, 10]: 25%
- individuals with % Injury 20-40% [5, 10]: 1
- individuals with % Injury <20% [5, 10]: 2
- individuals with % Injury >40% [5, 10]: 1
- individuals with % Injury <20% [5, 11]: 0
- Number of Surviving Plants Following glufosinate Spray ([6]; 280 g ai/ha glufosinate 7 DAP and 11 DAP, Trt 1: 200 mg WT planted): 0
- Number of Surviving Plants Following glufosinate Spray ([6]; 280 g ai/ha glufosinate, Trt 2: 2 mg PAT planted): 154
- Number of Surviving Plants Following glufosinate Spray ([6]; 280 g ai/ha glufosinate, Trt 3: 200 mg WT + 2 mg PAT planted): 121
- Number of Surviving Plants Following glufosinate Spray ([6]; 280 g ai/ha glufosinate, Trt 4: 2 mg DSM-2 (v2) planted): 117
- Number of Surviving Plants Following glufosinate Spray ([6]; 280 g ai/ha glufosinate, Trt 5: 200 mg WT + 2 mg DSM-2 (v2) planted): 121
- bacterial growth on minimal media ([7]; 250 μg/ml BASTA): ++
- bacterial growth on minimal media ([7]; 500 μg/ml BASTA): +
- concentration in minimal media to which promoter-driven DSM-2 provided resistance ([7]; CsVMV promoter, minimal media): 200 µg/mL
